“And” between values parts separate entries of the source, which are not always exact repeats. Equal entries are not always repeated.
How the values were obtained:
[1] = Pharmacokinetic study in mice; format: in vivo; conditions: for plasma concentration, individual mice: mice 1-8 in order
Protocol: Pharmacokinetic parameters of amphenmulin were measured according to previous reports with some modifications. Each group consisted of eight female SPF-ICR mice. Amphenmulin (1 mg/mL) was administered intravenously, intraperitoneally, and orally at a dose of 10 mg/kg, respectively. Formulation of amphenmulin was a filtered solution in 5% DMSO, 5% Tween-80, and 90% normal saline. Serial samples (each 0.2 mL) were collected from the ocular venous plexus and placed in a plastic centrifuge tube. The blood samples were placed at room temperature for 20 min and transferred to a 4 °C refrigerator for 12 h to promote blood coagulation. Then samples were centrifuged at 2000 r/min for 10 min to get serum. Serum samples were frozen at −20°C. 100 µL of samples was accurately absorbed and mixed with 100 µL of acetonitrile in a 1.5 mL centrifuge tube. The sample was mixed vigorously and centrifuged at 12,000 rpm for 10 min. The supernatant was transferred, filtered through a 0.22 μm cellulose membrane filter and used for LC-MS/MS analysis. Equipment and analysis conditions were shown in supplemental data. The pharmacokinetic parameters of amphenmulin were determined from the mean plasma concentration with noncompartmental analysis in WinNonlin 5.2 software (Pharsight, Mountain View, CA, USA). Data were shown as mean ± standard deviation (SD).

MRSA ATCC 43300 = assay: Constant concentration time-kill curves; format: cell-based, Staphylococcus aureus
Protocol: Time–kill curve experiments were performed in triplicate according previous report. In this experiment, MRSA, in logarithmic phase, was diluted to 10^6 CFU/mL with MH broth. […] The mixtures and control which was free of drug were cultured at 37 °C with shaking. A total of 20 µL aliquots from solutions were serially diluted 10-fold in 0.9% saline, at different time intervals (0, 3, 6, 9, and 24 h). Then the dilutions were plated onto MH agar medium and incubated at 37 °C for 18–24 h. The bacterial colonies were counted, and results were represented as the logarithm of the colony numbers. The time-kill curve was constructed by plotting log CFU/mL versus time.

[2] = female, ICR, mouse, plasma, mice, 10 mg/kg, oral

C=C[C@]1(C)C[C@@H](OC(=O)CSc2ccccc2N)[C@]2(C)[C@H](C)CC[C@]3(CCC(=O)[C@H]32)[C@@H](C)[C@@H]1O [Amphenmulin, 22-(2-amino-phenylsulfanyl)-22-deoxypleuromutilin]
Tmax [1, 2]: 1.37 ± 0.74 h | bioavailability [1, 2]: 13.7% | half-life [1, 2]: 2.91 ± 0.81 h | Vd/F ([1]; female, ICR, mouse, plasma, mice, 10 mg/kg, oral, read-out: Vz/F): 28.5 ± 9.01 L/kg | plasma concentration, individual mice ([1]; intraperitoneal 10 mg/kg, 0.083 h): 0.94 µg/mL and 0.70 µg/mL and 0.61 µg/mL and 0.48 µg/mL and 0.79 µg/mL and 1.48 µg/mL and 0.68 µg/mL and 1.14 µg/mL | plasma concentration, individual mice ([1]; intraperitoneal 10 mg/kg, 0.25 h): 0.98 µg/mL and 1.39 µg/mL and 1.10 µg/mL and 0.89 µg/mL and 1.15 µg/mL and 2.26 µg/mL and 1.20 µg/mL and 0.78 µg/mL | plasma concentration, individual mice ([1]; intraperitoneal 10 mg/kg, 0.5 h): 0.81 µg/mL and 1.39 µg/mL and 1.54 µg/mL and 0.58 µg/mL and 0.89 µg/mL and 1.48 µg/mL and 0.54 µg/mL and 0.61 µg/mL | plasma concentration, individual mice ([1]; intraperitoneal 10 mg/kg, 0.75 h): 0.42 µg/mL and 0.40 µg/mL | plasma concentration, individual mice ([1]; intravenous 10 mg/kg, 0.083 h, 10 mg/kg): 4.5 µg/mL and 3.97 µg/mL and 3.15 µg/mL and 4.2 µg/mL and 5.1 µg/mL and 3.25 µg/mL and 4.31 µg/mL | plasma concentration, individual mice ([1]; intravenous 10 mg/kg, 0.25 h, 10 mg/kg): 3.07 µg/mL and 3.57 µg/mL and 3.78 µg/mL and 4.44 µg/mL and 3.64 µg/mL and 4.65 µg/mL and 4.18 µg/mL | plasma concentration, individual mice ([1]; intravenous 10 mg/kg, 0.5 h, 10 mg/kg): 3.66 µg/mL and 3.82 µg/mL and 3.09 µg/mL and 3.18 µg/mL and 4.31 µg/mL and 3.98 µg/mL and 3.54 µg/mL | plasma concentration, individual mice ([1]; intravenous 10 mg/kg, 0.75 h, 10 mg/kg): 3.46 µg/mL and 4.22 µg/mL and 3.49 µg/mL and 2.98 µg/mL and 4.21 µg/mL and 3.48 µg/mL and 2.31 µg/mL | plasma concentration, individual mice ([1]; intravenous 10 mg/kg, 1 h, 10 mg/kg): 3.90 µg/mL and 3.62 µg/mL and 3.02 µg/mL and 2.02 µg/mL and 2.52 µg/mL and 2.95 µg/mL and 3.40 µg/mL and 4.09 µg/mL | plasma concentration, individual mice ([1]; intravenous 10 mg/kg, 2 h, 10 mg/kg): 1.56 µg/mL and 1.41 µg/mL and 2.31 µg/mL and 2.00 µg/mL and 2.56 µg/mL and 2.83 µg/mL and 3.14 µg/mL and 2.61 µg/mL | plasma concentration, individual mice ([1]; intravenous 10 mg/kg, 4 h, 10 mg/kg): 0.99 µg/mL and 1.32 µg/mL and 1.00 µg/mL and 1.10 µg/mL and 0.89 µg/mL and 0.79 µg/mL and 0.94 µg/mL | plasma concentration, individual mice ([1]; intravenous 10 mg/kg, 6 h, 10 mg/kg): 0.31 µg/mL and 0.43 µg/mL and 0.54 µg/mL and 0.52 µg/mL and 0.29 µg/mL and 0.34 µg/mL and 0.44 µg/mL | plasma concentration, individual mice ([1]; intravenous 10 mg/kg, 8 h, 10 mg/kg): 0.10 µg/mL and 0.16 µg/mL and 0.30 µg/mL and 0.24 µg/mL and 0.19 µg/mL and 0.12 µg/mL and 0.28 µg/mL and 0.32 µg/mL | plasma concentration, individual mice ([1]; intravenous 10 mg/kg, 12 h, 10 mg/kg): 0.03 µg/mL (2×) and 0.05 µg/mL (3×) and 0.08 µg/mL and 0.04 µg/mL and 0.06 µg/mL | CLβ/F ([1]; mice, 10 mg/kg, intraperitoneal): 4.08 ± 1.14 L/h/kg | CLβ ([1]; mice, 10 mg/kg, intravenous): 0.82 ± 0.09 L/h/kg | CLβ/F ([1]; mice, 10 mg/kg, oral): 6.31 ± 2.26 L/h/kg | colony numbers of MRSA (MRSA ATCC 43300; 0.5×MIC, 3 h): 7.17±0.08 log CFU/mL | colony numbers of MRSA (MRSA ATCC 43300; 0.5×MIC, 6 h): 7.83±0.16 log CFU/mL | colony numbers of MRSA (MRSA ATCC 43300; 0.5×MIC, 9 h): 8.22±0.15 log CFU/mL | colony numbers of MRSA (MRSA ATCC 43300; 0.5×MIC, 24 h): 8.33±0.10 log CFU/mL | colony numbers of MRSA (MRSA ATCC 43300; 1×MIC, 3 h): 6.84±0.08 log CFU/mL | colony numbers of MRSA (MRSA ATCC 43300; 1×MIC, 6 h): 7.44±0.06 log CFU/mL | colony numbers of MRSA (MRSA ATCC 43300; 1×MIC, 9 h): 7.86±0.13 log CFU/mL | colony numbers of MRSA (MRSA ATCC 43300; 1×MIC, 24 h): 7.70±0.46 log CFU/mL | colony numbers of MRSA (MRSA ATCC 43300; 2×MIC, 3 h): 6.43±0.13 log CFU/mL | colony numbers of MRSA (MRSA ATCC 43300; 2×MIC, 6 h): 6.56±0.23 log CFU/mL | colony numbers of MRSA (MRSA ATCC 43300; 2×MIC, 9 h): 7.07±0.42 log CFU/mL | colony numbers of MRSA (MRSA ATCC 43300; 2×MIC, 24 h): 7.26±0.62 log CFU/mL | colony numbers of MRSA (MRSA ATCC 43300; 4×MIC, 3 h): 5.96±0.66 log CFU/mL | colony numbers of MRSA (MRSA ATCC 43300; 4×MIC, 6 h): 6.13±0.06 log CFU/mL | colony numbers of MRSA (MRSA ATCC 43300; 4×MIC, 9 h): 5.77±0.15 log CFU/mL | colony numbers of MRSA (MRSA ATCC 43300; 4×MIC, 24 h): 4.04±0.58 log CFU/mL | colony numbers of MRSA (MRSA ATCC 43300; 8×MIC, 3 h): 5.91±0.03 log CFU/mL | colony numbers of MRSA (MRSA ATCC 43300; 8×MIC, 6 h): 5.98±0.09 log CFU/mL | colony numbers of MRSA (MRSA ATCC 43300; 8×MIC, 9 h): 5.78±0.09 log CFU/mL | colony numbers of MRSA (MRSA ATCC 43300; 8×MIC, 24 h): 3.55±0.16 log CFU/mL | colony numbers of MRSA (MRSA ATCC 43300; 16×MIC, 3 h): 5.79±0.12 log CFU/mL | colony numbers of MRSA (MRSA ATCC 43300; 16×MIC, 6 h): 5.77±0.15 log CFU/mL | colony numbers of MRSA (MRSA ATCC 43300; 16×MIC, 9 h): 5.64±0.11 log CFU/mL | colony numbers of MRSA (MRSA ATCC 43300; 16×MIC, 24 h): 2.97±0.06 log CFU/mL | colony numbers of MRSA (MRSA ATCC 43300; 32×MIC, 3 h): 5.60±0.18 log CFU/mL | colony numbers of MRSA (MRSA ATCC 43300; 32×MIC, 6 h): 5.91±0.56 log CFU/mL | colony numbers of MRSA (MRSA ATCC 43300; 32×MIC, 9 h): 5.11±0.36 log CFU/mL | colony numbers of MRSA (MRSA ATCC 43300; 32×MIC, 24 h): 2.43±0.67 log CFU/mL | type of antibacterial activity in time-kill curve (MRSA ATCC 43300; at the concentration of 4× MIC): bacteriostatic activity
